Test results taken from publication PMC3618516, “A Systematic Screen of FDA-Approved Drugs for Inhibitors of Biological Threat Agents” (PLoS ONE, 2013).
Where two headings read alike, the source gives them in different places.

Experiments:
[1] = system: MARV GP-pseudotyped vesicular stomatitis virus; experiment: microbe, parasite or virus in culture; assay type: cell-based, Marburg virus; details: Vesicular stomatitis virus, HEK-293T, read-out: MASV VPEN (% activity)
[2] = system: LASV GP-pseudotyped vesicular stomatitis virus; experiment: microbe, parasite or virus in culture; assay type: cell-based, Lassa virus; details: Vesicular stomatitis virus, HEK-293T, read-out: LASV VPEN (% activity)
[3] = system: EBOV GP-pseudotyped vesicular stomatitis virus; experiment: microbe, parasite or virus in culture; assay type: cell-based, Ebola virus; details: Zaire ebolavirus, HEK-293T, read-out: EBOV VPEN (% activity)
LASV = assay type: cell-based, Lassa virus
EBOV = assay type: cell-based, Ebola virus

Structure (SMILES) | inhibition at 10 µM ([1]; 10 µM) | inhibition at 10 µM ([2]; 10 µM) | inhibition at 10 µM ([3]; 10 µM) | inhibition at 50 µM [1] | LASV VR (LASV; 50 µM) | inhibition at 50 µM [2] | EBOV VR (EBOV; 50 µM) | inhibition at 50 µM [3] | further results
CCOC(=O)C1=C(COCCN)NC(C)=C(C(=O)OC)C1c1ccccc1Cl (stereo not shown) [Amlodipine] | 93% | 61% | 93% |  |  |  |  |  | 
OC(CCN1CCCCC1)(c1ccccc1)C1CC2C=CC1C2 (stereo not shown) [Biperiden] |  |  |  | 89% | − | 27% | − | 98% | 
CC(C(=O)O)c1ccc2c(c1)[nH]c1ccc(Cl)cc12 (stereo not shown) [Carprofen] | 88% | 50% | 94% |  |  |  |  |  | LASV VR (LASV; 10 µM): −; EBOV VR (EBOV; 10 µM): −
CN(C)CC[C@@H](c1ccc(Br)cc1)c1ccccn1 [Dexbrompheniramine] |  |  |  | 80% |  | 74% |  | 85% | 
CCCCOc1cc(C(=O)NCCN(CC)CC)c2ccccc2n1 [Dibucaine] | 93% | 49% | 99% |  |  |  |  |  | EBOV VR (EBOV; 10 µM): −
CCOC(=O)C1(c2ccccc2)CCN(CCC(C#N)(c2ccccc2)c2ccccc2)CC1 [Diphenoxylate] |  |  |  | 95% |  | 83% | + | 96% | 
CN1CCC(OC(c2ccccc2)c2ccccc2)CC1 [Diphenylpyraline] |  |  |  | 85% | − | 22% | + | 96% | 
CNCC(O)c1ccc(OC(=O)C(C)(C)C)c(OC(=O)C(C)(C)C)c1 (stereo not shown) [Dipivefrin] |  |  |  | 90% | − | 90% | − | 94% | 
C[C@]12CC[C@@H]3c4ccc(O)cc4CC[C@H]3[C@@H]1CC[C@@H]2O [Estradiol] | 98% | 50% | 93% |  |  |  |  |  | LASV VR (LASV; 10 µM): −; EBOV VR (EBOV; 10 µM): −
CNCCC(Oc1ccc(C(F)(F)F)cc1)c1ccccc1 (stereo not shown) [Fluoxetine] | 98% | 76% | 96% |  |  |  |  |  | LASV VR (LASV; 10 µM): −; EBOV VR (EBOV; 10 µM): −
CN1CCC(=C2c3ccccc3CC(=O)c3sccc32)CC1 [Ketotifen] |  |  |  | 97% | − | 33% | + | 99% | 
CCC(=O)O[C@@](Cc1ccccc1)(c1ccccc1)[C@@H](C)CN(C)C [Levopropoxyphene] |  |  |  | 89% |  | 79% |  | 98% | 
COc1c(C)c2c(c(O)c1C/C=C(\C)CCC(=O)OCCN1CCOCC1)C(=O)OC2 [Mycophenolate mofetil] |  |  |  | 81% | − | 69% | − | 91% | 
CN1CCCN=C1COC(=O)C(O)(c1ccccc1)C1CCCCC1 (stereo not shown) [Oxyphencyclimine] |  |  |  | 89% | − | 28% | − | 95% | 
Fc1ccc([C@@H]2CCNC[C@H]2COc2ccc3c(c2)OCO3)cc1 [Paroxetine] | 89% | 6% | 98% |  |  |  |  |  | LASV VR (LASV; 10 µM): −; EBOV VR (EBOV; 10 µM): −
CC(C)(C)NC[C@H](O)COc1ccccc1C1CCCC1 [Penbutolol] | 81% | 67% | 98% |  |  |  |  |  | 
CN1CCN(CCCN2c3ccccc3Sc3ccc(Cl)cc32)CC1 [Prochlorperazine] | 93% | 70% | 95% |  |  |  |  |  | 
CNCCCC1c2ccccc2C=Cc2ccccc21 [Protriptyline] |  |  |  |  |  |  |  |  | inhibition at 10 µM [1]: 80%; inhibition at 10 µM [2]: 28%; inhibition at 10 µM [3]: 83%
CN(C)CCOc1ccc(/C(=C(/CCCl)c2ccccc2)c2ccccc2)cc1 [Toremifene] | 96% | 76% | 97% |  |  |  |  |  | 
